We go through three molecules from patent US20010018073A1, “Transdermal compositions with enhanced skin penetration properties” (JENAPHARM GMBH & CO., KG, priority 1997, published 2001).

The conditions of series [1]: substance on its own versus ANP employed as accelerant; cited from earlier work.
Series [2] can be described thus: T2 relaxation times of destructuring and structuring agents in water. It is filed as physicochemical. To be noted: solute in water, concentration 0.5 mol/l.

Structures are written as SMILES.

Regarding `O=[N+]([O-])O[C@H]1CO[C@H]2[C@@H]1OC[C@H]2O[N+](=O)[O-]` [ISDN, isosorbide dinitrate], in series [1], the “permeation through the skin relative to ANP” value is reported as 10 factor.
For the molecule `OC[C@H]1O[C@@](CO)(O[C@H]2O[C@H](CO)[C@@H](O)[C@H](O)[C@H]2O)[C@@H](O)[C@@H]1O` [Sucrose], in series [2], the T2 relaxation time is 18.7 ms.
Same read-out and setting: next, `NC(N)=O` [Urea]: 145 ms.
